Measurements taken from US20210401809A1, “PHARMACEUTICAL COMPOUNDS” (Sareum Limited, priority 2016, published 2021).

Columns and labels:
JAK3 = target: T1, JAK3 (Homo sapiens, UniProt P52333); assay: In vitro enzyme inhibition, 33P-ATP filter kinase assay (Reaction Biology); assay type: biochemical
T1 construct: 781-1124; GST (N); purchased Reaction Biology Corp. (contract assay); host or cells: Baculovirus in Sf21 insect cells
Procedure: (§1) Compounds of the invention were assayed for their ability to inhibit TYK2 kinase and other JAK kinases.
(§2) Substrates and kinases used in the assays are identified in Table 2 below.
(§3) JAK3tide=[Ac-[…]-NH2]

JAK1 = target: T2, JAK1 (Homo sapiens, UniProt P23458); assay: as above; assay type: biochemical
T2 construct: 866-1154; GST (N); purchased Reaction Biology Corp. (contract assay); host or cells: Baculovirus in Sf21 insect cells
T2 sequence (P23458 866-1154): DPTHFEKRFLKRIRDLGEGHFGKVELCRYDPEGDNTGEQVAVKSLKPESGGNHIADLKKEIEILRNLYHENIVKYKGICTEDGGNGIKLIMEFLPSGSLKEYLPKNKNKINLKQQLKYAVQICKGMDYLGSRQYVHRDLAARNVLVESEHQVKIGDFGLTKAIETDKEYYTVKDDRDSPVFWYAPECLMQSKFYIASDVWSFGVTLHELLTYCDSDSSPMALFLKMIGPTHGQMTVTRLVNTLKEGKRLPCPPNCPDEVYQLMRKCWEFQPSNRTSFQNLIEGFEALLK
Procedure: as §1, §2, §3

TYK2 kinase = target: T3, TYK2 kinase (Homo sapiens, UniProt P29597); assay: as above; assay type: biochemical
T3 construct: 833-1187; GST (N); purchased Reaction Biology Corp. (contract assay); host or cells: Baculovirus in Sf21 insect cells
T3 sequence (P29597 833-1187): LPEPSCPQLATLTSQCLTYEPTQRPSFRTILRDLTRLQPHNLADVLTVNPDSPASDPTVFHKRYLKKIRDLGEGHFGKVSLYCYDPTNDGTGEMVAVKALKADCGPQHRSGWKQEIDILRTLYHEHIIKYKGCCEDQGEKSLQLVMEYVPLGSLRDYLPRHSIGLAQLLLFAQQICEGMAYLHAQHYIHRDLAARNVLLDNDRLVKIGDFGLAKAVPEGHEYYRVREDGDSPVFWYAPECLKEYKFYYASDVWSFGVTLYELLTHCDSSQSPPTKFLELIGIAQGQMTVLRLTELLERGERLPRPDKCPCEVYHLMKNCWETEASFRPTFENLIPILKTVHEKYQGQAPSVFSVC
Procedure: as §1, §2, §3

JAK2 = target: T4, JAK2 (Homo sapiens, UniProt O60674); assay: as above; assay type: biochemical
T4 construct: 809-1132; GST (N); '+g'; purchased Reaction Biology Corp. (contract assay); host or cells: Baculovirus in Sf21 insect cells
T4 sequence (O60674 809-1132): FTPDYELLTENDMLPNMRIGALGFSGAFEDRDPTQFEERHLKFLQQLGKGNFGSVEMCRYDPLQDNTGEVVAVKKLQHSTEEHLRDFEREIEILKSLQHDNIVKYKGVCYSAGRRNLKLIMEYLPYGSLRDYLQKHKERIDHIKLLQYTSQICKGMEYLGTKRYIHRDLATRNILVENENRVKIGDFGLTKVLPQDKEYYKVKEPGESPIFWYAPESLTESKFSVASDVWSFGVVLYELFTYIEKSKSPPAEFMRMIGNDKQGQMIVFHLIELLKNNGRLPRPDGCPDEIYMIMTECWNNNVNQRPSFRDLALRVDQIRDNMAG
Procedure: as §1, §2

[1] = test system: Loucy cells (TYK2-independent T-ALL); assay: Cell proliferation assay (ATPlite, 7 days); assay type: cell-based; settings: 168 h
Procedure: (§4) Jurkat, MOLT-4, CCRF-CEM and CCRF-HSB-2 cells are all TYK2-dependent T-ALL cells. Loucy cells are TYK2-independent T-ALL cell lines. Dexamethasone, Etoposide and Paclitaxel were used as positive controls. Compound effects were studied 7 days after compound addition […] Luminescent product was detected using a BMG FLUOstar plate reader. • The data were analysed using a 4-parameter logistic equation in GraphPad Prism.

[2] = test system: CCRF-HSB-2 cells (TYK2-dependent T-ALL); assay: Cell proliferation assay (ATPlite, 7 days); assay type: cell-based; settings: Homo sapiens, CCRF-HSB-2, 168 h
Procedure: as §4

[3] = test system: CCRF-CEM cells (TYK2-dependent T-ALL); assay: Cell proliferation assay (ATPlite, 7 days); assay type: cell-based; settings: Homo sapiens, 168 h
Procedure: as §4

[4] = test system: Jurkat cells (TYK2-dependent T-ALL); assay: Cell proliferation assay (ATPlite, 7 days); assay type: cell-based; settings: Homo sapiens, 168 h
Procedure: as §4

[5] = test system: MOLT-4 cells (TYK2-dependent T-ALL); assay: Cell proliferation assay (ATPlite, 7 days); assay type: cell-based; settings: Homo sapiens, MOLT-4, 168 h
Procedure: as §4

[6] = test system: TYK2 dependent cell lines (T-ALL cells); settings: Sanda et al.; cited from earlier work

T1 sequence (P52333 781-1124): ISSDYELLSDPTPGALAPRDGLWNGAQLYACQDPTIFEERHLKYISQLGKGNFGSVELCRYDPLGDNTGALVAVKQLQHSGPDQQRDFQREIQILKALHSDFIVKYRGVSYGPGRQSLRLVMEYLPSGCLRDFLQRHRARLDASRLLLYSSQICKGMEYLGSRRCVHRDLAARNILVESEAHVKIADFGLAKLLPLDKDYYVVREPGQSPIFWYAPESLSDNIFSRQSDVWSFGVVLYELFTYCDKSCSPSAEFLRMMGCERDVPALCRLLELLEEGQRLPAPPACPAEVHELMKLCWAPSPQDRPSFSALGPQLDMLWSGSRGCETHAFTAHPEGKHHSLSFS

Compound `NC(=O)c1nc(-c2c(Cl)cccc2Cl)oc1Nc1ccc(C(=O)N[C@@H]2CCCNC2)cc1` [Compound 28, (R) 2-(2,6-dichloro-phenyl)-5-[4-(piperidin-3-ylcarbamoyl)-phenylamino]-oxazole-4-carboxylic acid amide] has an IC50 (JAK3) of 194 nM, an IC50 (JAK1) of 108 nM and an IC50 (TYK2 kinase) of 1.77 nM. It also gave an IC50 (JAK2) of 122 nM.

With `CC(=O)O[C@H]1C(=O)[C@@]2(C)[C@H]([C@H](OC(=O)c3ccccc3)[C@]3(O)C[C@H](OC(=O)[C@H](O)[C@@H](NC(=O)c4ccccc4)c4ccccc4)C(C)=C1C3(C)C)[C@]1(OC(C)=O)CO[C@@H]1C[C@@H]2O` [Paclitaxel, reference compound] the IC50 [1] was 2.2 µM, the IC50 [2] was 1.3 µM and the IC50 [3] was 4.4 µM. For the same compound, the IC50 [4] was 1.8 µM and the IC50 [5] was 0.66 µM.

For `COc1cc([C@@H]2c3cc4c(cc3[C@@H](O[C@@H]3O[C@@H]5CO[C@@H](C)O[C@H]5[C@H](O)[C@H]3O)[C@H]3COC(=O)[C@H]23)OCO4)cc(OC)c1O` [Etoposide, reference compound], the IC50 [1] was 33 µM, the IC50 [2] was 4.7 µM and the IC50 [3] was 17 µM. It also gave an IC50 [4] of 94 µM and an IC50 [5] of 7.7 µM.

Compound `CC(C)S(=O)(=O)c1ccc(Nc2oc(-c3c(F)cccc3F)nc2C(N)=O)cc1` [Compound 33] has an IC50 (JAK3) of 516 nM, an IC50 (JAK1) of 135 nM and an IC50 (TYK2 kinase) of 5.47 nM. For the same compound, the IC50 (JAK2) was 153 nM.

Compound `NC(=O)c1nc(-c2c(Cl)cccc2Cl)oc1Nc1ccc(C(=O)N[C@H]2CCCNC2)cc1` [Compound 27, (S) 2-(2,6-dichloro-phenyl)-5-[4-(piperidin-3-ylcarbamoyl)-phenylamino]-oxazole-4-carboxylic acid amide] has an IC50 (JAK3) of 233 nM, an IC50 (JAK1) of 72.2 nM and an IC50 (TYK2 kinase) of 1.21 nM. For the same compound, the IC50 (JAK2) was 93.3 nM.

Work on `CCS(=O)(=O)c1ccc(Nc2oc(-c3c(F)cccc3F)nc2C(N)=O)cc1` [Compound 31, 2-(2,6-difluoro-phenyl)-5-(4-ethanesulfonyl-phenylamino)-oxazole-4-carboxylic acid amide] yielded an IC50 (JAK3) of 390 nM, an IC50 (JAK1) of 222 nM and an IC50 (TYK2 kinase) of 4.41 nM. The IC50 (JAK2) was 213 nM.

`C[C@@H]1C[C@H]2[C@@H]3CCC4=CC(=O)C=C[C@]4(C)[C@@]3(F)[C@@H](O)C[C@]2(C)[C@@]1(O)C(=O)CO` [Dexamethasone, reference compound] gave an inhibition at 10 µM ([1]; 10 μM, read-out: Cell proliferation inh. @ 10 μM, Loucy) of 25%, an IC50 [2] of 49 µM and an IC50 [3] of 59 µM. The inhibition at 10 µM ([4]; 10 μM, read-out: Cell proliferation inh. @ 10 μM, Jurkat) was 5% and the inhibition at 10 µM ([5]; 10 μM, read-out: Cell proliferation inh. @ 10 μM, MOLT-4) was 21%.

For `CN1CCC(NC(=O)c2ccc(Nc3oc(-c4c(Cl)cccc4Cl)nc3C(N)=O)cc2)CC1` [Compound 30, 2-(2,6-dichloro-phenyl)-5-[4-(1-methyl-piperidin-4-ylcarbamoyl)-phenylamino]-oxazole-4-carboxylic acid amide], the IC50 (JAK3) was 164 nM, the IC50 (JAK1) was 83.4 nM and the IC50 (TYK2 kinase) was 1.52 nM. For the same compound, the IC50 (JAK2) was 106 nM.

Compound `CN1CCC(NC(=O)c2ccc(Nc3oc(-c4c(F)cccc4Cl)nc3C(N)=O)cc2)CC1` [Compound 26, 2-(2-chloro-6-fluoro-phenyl)-5-[4-(1-methyl-piperidin-4-ylcarbamoyl)-phenylamino]-oxazole-4-carboxylic acid amide] has an IC50 (JAK3) of 132 nM, an IC50 (JAK1) of 100 nM and an IC50 (TYK2 kinase) of 2.98 nM. The IC50 (JAK2) was 87.8 nM.

`CS(=O)(=O)c1ccc(Nc2oc(-c3c(Cl)cccc3Cl)nc2C(N)=O)cc1` [Compound 19, 2-(2,6-dichloro-phenyl)-5-(4-methanesulfonyl-phenylamino)-oxazole-4-carboxylic acid amide] gave an IC50 [1] of 20 µM, an IC50 [2] of 17 µM and an inhibition at 30 µM ([3]; 30 μM, read-out: Cell proliferation inh. @ 30 μM, CCRF-CEM) of 34%. For the same compound, the inhibition at 30 µM ([4]; 30 μM, read-out: Cell proliferation inh. @ 30 μM, Jurkat) was 8% and the IC50 [5] was 12 µM.

With `NC(=O)c1nc(-c2c(F)cccc2Cl)oc1Nc1ccc(C(=O)N[C@@H]2CCCNC2)cc1` [Compound 24, (R) 2-(2-chloro-6-fluoro-phenyl)-5-[4-(piperidin-3-ylcarbamoyl)-phenylamino]-oxazole-4-carboxylic acid amide] the IC50 (JAK3) was 167 nM, the IC50 (JAK1) was 157 nM and the IC50 (TYK2 kinase) was 5.11 nM. For the same compound, the IC50 (JAK2) was 125 nM.

`NC(=O)c1nc(-c2c(F)cccc2Cl)oc1Nc1ccc(C(=O)N[C@H]2CCCNC2)cc1` [Compound 23, (S) 2-(2-chloro-6-fluoro-phenyl)-5-[4-(piperidin-3-ylcarbamoyl)-phenylamino]-oxazole-4-carboxylic acid amide] showed an IC50 (JAK3) of 240 nM, an IC50 (JAK1) of 63.3 nM and an IC50 (TYK2 kinase) of 1.89 nM. It also gave an IC50 (JAK2) of 61.9 nM.

In the case of `C[C@@H]1CCN(C(=O)CC#N)C[C@@H]1N(C)c1ncnc2[nH]ccc12` [CP-690550], the “effect against the T-ALL cells” value [6] is given as “ineffective”.

In the case of `CS(=O)(=O)c1ccc(Nc2oc(-c3c(F)cccc3Cl)nc2C(N)=O)cc1` [Compound 20, 2-(2-chloro-6-fluoro-phenyl)-5-(4-methanesulfonyl-phenylamino)-oxazole-4-carboxylic acid amide], the IC50 [1] was 3.9 µM, the IC50 [2] was 2.8 µM and the IC50 [3] was 8.9 µM. It also gave an IC50 [4] of 2.1 µM and an IC50 [5] of 3.1 µM.
